Measurements as given in ChEMBL document CHEMBL1909046, “DrugMatrix in vitro pharmacology data”.

Tests used:
[1] = biological target: Sodium-dependent noradrenaline transporter (Homo sapiens, UniProt P23975); experiment: DRUGMATRIX: Norepinephrine Transporter radioligand binding (ligand: [125I] RTI-55); format: cell membranes, MDCK, Membrane; details: Not Active = under 50% inhibition at 10 µM; for Ki: read-out: Ki
[2] = biological target: T1, Type-2 angiotensin II receptor (Homo sapiens, UniProt P50052); format: cell-based; details: cho-k1; further: in other assays of this panel Not Active means under 50% inhibition at 10 µM
T1 sequence (P50052 whole entry): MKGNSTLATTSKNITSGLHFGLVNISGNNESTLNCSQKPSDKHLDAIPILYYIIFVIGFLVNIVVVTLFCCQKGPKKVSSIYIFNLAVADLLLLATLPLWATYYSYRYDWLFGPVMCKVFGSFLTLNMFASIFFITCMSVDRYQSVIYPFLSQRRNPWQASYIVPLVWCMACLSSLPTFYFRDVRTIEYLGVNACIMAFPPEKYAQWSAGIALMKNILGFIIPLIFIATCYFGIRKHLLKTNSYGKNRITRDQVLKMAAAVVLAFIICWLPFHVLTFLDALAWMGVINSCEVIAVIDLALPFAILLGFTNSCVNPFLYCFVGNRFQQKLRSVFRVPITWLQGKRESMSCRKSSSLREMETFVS

[3] = biological target: Platelet-activating factor receptor (Homo sapiens, UniProt P25105); format: tissue-based; further: in other assays of this panel Not Active means under 50% inhibition at 10 µM
Sequence of Platelet-activating factor receptor (P25105 whole entry): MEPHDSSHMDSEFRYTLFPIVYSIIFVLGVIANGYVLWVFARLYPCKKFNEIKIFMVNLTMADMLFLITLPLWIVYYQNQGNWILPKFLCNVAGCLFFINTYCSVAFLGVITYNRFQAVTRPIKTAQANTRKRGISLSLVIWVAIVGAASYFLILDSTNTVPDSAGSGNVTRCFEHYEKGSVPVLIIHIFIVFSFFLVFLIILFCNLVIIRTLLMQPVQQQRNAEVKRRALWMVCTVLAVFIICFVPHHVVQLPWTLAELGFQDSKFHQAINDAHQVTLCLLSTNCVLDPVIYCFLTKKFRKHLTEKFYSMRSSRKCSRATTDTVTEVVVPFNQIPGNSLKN

[4] = DRUGMATRIX: Serotonin (5-Hydroxytryptamine) 5-HT3 radioligand binding (ligand: [3H] GR-65630); format: cell membranes, Membrane; details: hek293; Not Active = under 50% inhibition at 10 µM
[5] = DRUGMATRIX: Leukotriene, BLT (LTB4) radioligand binding (ligand: [3H]LTB4); format: cell membranes, Membrane; details: u-937; Not Active = under 50% inhibition at 10 µM
Estrogen receptor beta = Estrogen receptor beta (Homo sapiens, UniProt Q92731); details: sf9; further: in other assays of this panel Not Active means under 50% inhibition at 10 µM
Sequence of Estrogen receptor beta (Q92731 whole entry): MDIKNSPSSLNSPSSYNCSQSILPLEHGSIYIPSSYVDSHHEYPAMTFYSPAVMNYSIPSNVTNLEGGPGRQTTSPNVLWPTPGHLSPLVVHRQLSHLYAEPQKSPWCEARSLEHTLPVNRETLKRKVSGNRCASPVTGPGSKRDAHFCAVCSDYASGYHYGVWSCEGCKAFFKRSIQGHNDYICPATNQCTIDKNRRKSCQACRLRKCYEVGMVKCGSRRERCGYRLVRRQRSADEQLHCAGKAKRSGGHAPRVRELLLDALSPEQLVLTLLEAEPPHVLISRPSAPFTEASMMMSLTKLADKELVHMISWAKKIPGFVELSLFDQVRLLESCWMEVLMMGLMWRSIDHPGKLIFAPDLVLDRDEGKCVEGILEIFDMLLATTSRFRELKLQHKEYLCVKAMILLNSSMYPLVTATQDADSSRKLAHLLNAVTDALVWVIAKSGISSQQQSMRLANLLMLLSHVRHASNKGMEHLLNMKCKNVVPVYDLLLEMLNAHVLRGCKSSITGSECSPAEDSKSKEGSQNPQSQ

Substance-K receptor = biological target: T2, Substance-K receptor (Homo sapiens, UniProt P21452); format: cell membranes, CHO, Membrane; further: in other assays of this panel Not Active means under 50% inhibition at 10 µM
T2 sequence (P21452 whole entry): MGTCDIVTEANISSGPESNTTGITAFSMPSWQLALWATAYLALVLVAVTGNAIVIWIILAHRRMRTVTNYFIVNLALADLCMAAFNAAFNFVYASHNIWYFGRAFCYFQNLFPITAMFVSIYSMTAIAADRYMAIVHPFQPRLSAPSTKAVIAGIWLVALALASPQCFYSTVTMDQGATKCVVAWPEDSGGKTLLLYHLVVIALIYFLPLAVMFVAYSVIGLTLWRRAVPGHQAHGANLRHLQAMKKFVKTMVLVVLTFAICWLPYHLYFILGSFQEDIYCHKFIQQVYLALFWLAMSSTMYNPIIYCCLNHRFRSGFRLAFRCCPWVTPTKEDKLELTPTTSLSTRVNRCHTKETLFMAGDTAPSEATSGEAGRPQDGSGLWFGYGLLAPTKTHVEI

Sequence of Sodium-dependent noradrenaline transporter (P23975 whole entry): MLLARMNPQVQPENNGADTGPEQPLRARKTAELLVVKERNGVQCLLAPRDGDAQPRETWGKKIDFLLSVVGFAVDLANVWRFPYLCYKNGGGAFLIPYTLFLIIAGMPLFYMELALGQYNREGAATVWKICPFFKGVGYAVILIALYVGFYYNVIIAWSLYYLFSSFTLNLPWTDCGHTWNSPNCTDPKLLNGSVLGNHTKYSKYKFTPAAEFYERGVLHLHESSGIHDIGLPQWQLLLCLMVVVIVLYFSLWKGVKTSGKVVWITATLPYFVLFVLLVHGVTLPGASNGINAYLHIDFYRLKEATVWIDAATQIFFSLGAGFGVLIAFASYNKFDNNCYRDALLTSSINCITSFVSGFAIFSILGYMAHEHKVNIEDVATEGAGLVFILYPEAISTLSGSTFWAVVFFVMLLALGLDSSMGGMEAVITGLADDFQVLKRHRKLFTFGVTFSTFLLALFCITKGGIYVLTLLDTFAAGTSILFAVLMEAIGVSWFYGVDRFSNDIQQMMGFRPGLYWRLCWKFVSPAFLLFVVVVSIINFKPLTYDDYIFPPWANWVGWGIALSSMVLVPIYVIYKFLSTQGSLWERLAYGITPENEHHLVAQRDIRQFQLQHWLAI

Row | Structure (SMILES) | IC50 ([1]; read-out: IC50) [nM] | Ki [1] [nM] | IC50 [2] | IC50 [3] | IC50 [4] | Ki [4] | IC50 [5] | Ki [5] | IC50 (Estrogen receptor beta) | IC50 (Substance-K receptor; cho) | IC50 ([1]; mdck) | IC50 (Substance-K receptor; read-out: IC50) [nM] | Ki (Substance-K receptor; read-out: Ki) [nM]
1 | c1ccc2c(c1)Nc1ccccc1S2 [PHENOTHIAZINE] | 461 | 457 | Not Active | Not Active | Not Active | Not Active | Not Active | Not Active | Not Active | Not Active | – | – | –
2 | C[C@H](C(=O)O)c1ccc2oc(-c3ccc(F)cc3)nc2c1 [FLUNOXAPROFEN] | – | – | Not Active | Not Active | Not Active | Not Active | Not Active | Not Active | Not Active | Not Active | Not Active | – | –
3 | CC1(COc2ccc(CC3SC(=O)NC3=O)cc2)CCCCC1 (stereo unspecified) [CIGLITAZONE] | 2220 | 2200 | Not Active | Not Active | Not Active | Not Active | Not Active | Not Active | Not Active | – | – | 12600 | 4190
4 | C=CCN1CC[C@]23c4c5ccc(O)c4O[C@H]2/C(=N/N=C2\CC[C@@]4(O)[C@H]6Cc7ccc(O)c8c7[C@@]4(CCN6CC=C)[C@H]2O8)CC[C@@]3(O)[C@H]1C5 [NALOXONAZINE] | – | – | Not Active | Not Active | Not Active | Not Active | Not Active | Not Active | Not Active | Not Active | Not Active | – | –
5 | C[N+](C)(C)CCOP(=O)([O-])OC[C@H](O)CO | – | – | Not Active | Not Active | Not Active | Not Active | Not Active | Not Active | Not Active | Not Active | Not Active | – | –
6 | CCC1(c2ccccc2)C(=O)NC(=O)NC1=O [PHENOBARBITAL] | – | – | Not Active | Not Active | Not Active | Not Active | Not Active | Not Active | Not Active | Not Active | Not Active | – | –
7 | O=C(O)COC(=O)Cc1ccccc1Nc1c(Cl)cccc1Cl [ACECLOFENAC] | – | – | Not Active | Not Active | Not Active | Not Active | Not Active | Not Active | Not Active | Not Active | Not Active | – | –
